Assay results: PubChem BioAssay (NCI)
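In this assay, cells in 96-well plates receive the compound at five concentrations for 48 hours. Endpoints are linearly interpolated between the surrounding concentrations. TGI denotes the concentration required for complete inhibition of growth.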

Legend:
Assay in all cases: NCI anticancer screen, dose series, 48 h
786-0 renal = tested on: 786-0 renal
A549 NSCLC = tested on: A549 NSCLC
ACHN renal = tested on: ACHN renal
CAKI-1 renal = tested on: CAKI-1 renal
CCRF-CEM leukemia = tested on: CCRF-CEM leukemia
COLO 205 colon = tested on: COLO 205 colon
DU-145 prostate = tested on: DU-145 prostate
EKVX NSCLC = tested on: EKVX NSCLC
HCC-2998 colon = tested on: HCC-2998 colon
HCT-116 colon = tested on: HCT-116 colon
HCT-15 colon = tested on: HCT-15 colon
HL-60(TB) leukemia = tested on: HL-60(TB) leukemia
HOP-62 NSCLC = tested on: HOP-62 NSCLC
HOP-92 NSCLC = tested on: HOP-92 NSCLC
HS 578T breast = tested on: HS 578T breast
HT29 colon = tested on: HT29 colon
IGROV1 ovarian = tested on: IGROV1 ovarian
K-562 leukemia = tested on: K-562 leukemia
KM12 colon = tested on: KM12 colon
LOX IMVI melanoma = tested on: LOX IMVI melanoma
M14 melanoma = tested on: M14 melanoma
MALME-3M melanoma = tested on: MALME-3M melanoma
MCF7 breast = tested on: MCF7 breast
MDA-MB-231 breast = tested on: MDA-MB-231 breast
MDA-MB-435 = tested on: MDA-MB-435
MDA-N = tested on: MDA-N
MOLT-4 leukemia = tested on: MOLT-4 leukemia
NCI-H226 lung = tested on: NCI-H226 lung
NCI-H23 lung = tested on: NCI-H23 lung
NCI-H460 lung = tested on: NCI-H460 lung
NCI/ADR-RES ovarian = tested on: NCI/ADR-RES ovarian
OVCAR-4 ovarian = tested on: OVCAR-4 ovarian
OVCAR-5 ovarian = tested on: OVCAR-5 ovarian
OVCAR-8 ovarian = tested on: OVCAR-8 ovarian
PC-3 prostate = tested on: PC-3 prostate
RPMI-8226 leukemia = tested on: RPMI-8226 leukemia
SF-268 CNS = tested on: SF-268 CNS
SF-295 CNS = tested on: SF-295 CNS
SF-539 CNS = tested on: SF-539 CNS
SK-MEL-2 melanoma = tested on: SK-MEL-2 melanoma
SK-MEL-28 melanoma = tested on: SK-MEL-28 melanoma
SK-MEL-5 melanoma = tested on: SK-MEL-5 melanoma
SK-OV-3 ovarian = tested on: SK-OV-3 ovarian
SN12C renal = tested on: SN12C renal
SNB-75 CNS = tested on: SNB-75 CNS
SR leukemia = tested on: SR leukemia
SW-620 colon = tested on: SW-620 colon
T-47D breast = tested on: T-47D breast
TK-10 renal = tested on: TK-10 renal
U251 CNS = tested on: U251 CNS
UACC-257 melanoma = tested on: UACC-257 melanoma
UACC-62 melanoma = tested on: UACC-62 melanoma
UO-31 renal = tested on: UO-31 renal
NCI-H522 lung = tested on: NCI-H522 lung
OVCAR-3 ovarian = tested on: OVCAR-3 ovarian
RXF 393 renal = tested on: RXF 393 renal
SNB-19 CNS = tested on: SNB-19 CNS

## COC(=O)C1(Cc2ccccc2)Cc2ccccc2C1
786-0 renal
  TGI: 81.9 µM
A549 NSCLC
  TGI: > 100 µM
ACHN renal
  TGI: > 100 µM
CAKI-1 renal
  TGI: 65.4 µM
CCRF-CEM leukemia
  TGI: 42.4 µM
COLO 205 colon
  TGI: 35.8 µM
DU-145 prostate
  TGI: > 100 µM
EKVX NSCLC
  TGI: 89.4 µM
HCC-2998 colon
  TGI: 98.2 µM
HCT-116 colon
  TGI: 49.8 µM
HCT-15 colon
  TGI: > 100 µM
HL-60(TB) leukemia
  TGI: 45.8 µM
HOP-62 NSCLC
  TGI: > 100 µM
HOP-92 NSCLC
  TGI: 46.3 µM
HS 578T breast
  TGI: > 100 µM
HT29 colon
  TGI: 41.7 µM
IGROV1 ovarian
  TGI: > 100 µM
K-562 leukemia
  TGI: 52.3 µM
KM12 colon
  TGI: > 100 µM
LOX IMVI melanoma
  TGI: 88 µM
M14 melanoma
  TGI: 34.8 µM
MALME-3M melanoma
  TGI: 35.4 µM
MCF7 breast
  TGI: > 100 µM
MDA-MB-231 breast
  TGI: > 100 µM
MDA-MB-435
  TGI: 41.8 µM
MDA-N
  TGI: 49.3 µM
MOLT-4 leukemia
  TGI: 41.8 µM
NCI-H226 lung
  TGI: 78.3 µM
NCI-H23 lung
  TGI: > 100 µM
NCI-H460 lung
  TGI: 84.9 µM
NCI/ADR-RES ovarian
  TGI: 69.2 µM
OVCAR-4 ovarian
  TGI: > 100 µM
OVCAR-5 ovarian
  TGI: > 100 µM
OVCAR-8 ovarian
  TGI: > 100 µM
PC-3 prostate
  TGI: > 100 µM
RPMI-8226 leukemia
  TGI: 57.9 µM
SF-268 CNS
  TGI: > 100 µM
SF-295 CNS
  TGI: 99.2 µM
SF-539 CNS
  TGI: > 100 µM
SK-MEL-2 melanoma
  TGI: 25.8 µM
SK-MEL-28 melanoma
  TGI: > 100 µM
SK-MEL-5 melanoma
  TGI: 31.9 µM
SK-OV-3 ovarian
  TGI: > 100 µM
SN12C renal
  TGI: > 100 µM
SNB-75 CNS
  TGI: 96.2 µM
SR leukemia
  TGI: > 100 µM
SW-620 colon
  TGI: > 100 µM
T-47D breast
  TGI: 90.8 µM
TK-10 renal
  TGI: > 100 µM
U251 CNS
  TGI: 73.5 µM
UACC-257 melanoma
  TGI: 65.6 µM
UACC-62 melanoma
  TGI: 75.6 µM
UO-31 renal
  TGI: 55.9 µM

## CN(Cc1cnc2nc(N)nc(N)c2n1)c1ccc(C(=O)NC(CCC(=O)NC(P(=O)(O)O)P(=O)(O)O)C(=O)O)cc1 (stereo not drawn)
786-0 renal
  TGI: > 100 µM
A549 NSCLC
  TGI: > 100 µM
ACHN renal
  TGI: > 100 µM
CAKI-1 renal
  TGI: 29.8 µM
CCRF-CEM leukemia
  TGI: > 100 µM
COLO 205 colon
  TGI: > 100 µM
DU-145 prostate
  TGI: > 100 µM
EKVX NSCLC
  TGI: > 100 µM
HCT-116 colon
  TGI: > 100 µM
HCT-15 colon
  TGI: > 100 µM
HL-60(TB) leukemia
  TGI: > 100 µM
HOP-62 NSCLC
  TGI: > 100 µM
HOP-92 NSCLC
  TGI: > 100 µM
HS 578T breast
  TGI: > 100 µM
HT29 colon
  TGI: > 100 µM
IGROV1 ovarian
  TGI: > 100 µM
K-562 leukemia
  TGI: > 100 µM
KM12 colon
  TGI: > 100 µM
LOX IMVI melanoma
  TGI: > 100 µM
M14 melanoma
  TGI: > 100 µM
MALME-3M melanoma
  TGI: > 100 µM
MCF7 breast
  TGI: > 100 µM
MDA-MB-231 breast
  TGI: > 100 µM
MDA-MB-435
  TGI: > 100 µM
MDA-N
  TGI: > 100 µM
MOLT-4 leukemia
  TGI: > 100 µM
NCI-H226 lung
  TGI: > 100 µM
NCI-H23 lung
  TGI: > 100 µM
NCI-H460 lung
  TGI: > 100 µM
NCI-H522 lung
  TGI: > 100 µM
NCI/ADR-RES ovarian
  TGI: > 100 µM
OVCAR-3 ovarian
  TGI: > 100 µM
OVCAR-4 ovarian
  TGI: > 100 µM
OVCAR-5 ovarian
  TGI: > 100 µM
OVCAR-8 ovarian
  TGI: > 100 µM
PC-3 prostate
  TGI: > 100 µM
RPMI-8226 leukemia
  TGI: > 100 µM
RXF 393 renal
  TGI: > 100 µM
SF-268 CNS
  TGI: > 100 µM
SF-295 CNS
  TGI: > 100 µM
SF-539 CNS
  TGI: > 100 µM
SK-MEL-2 melanoma
  TGI: > 100 µM
SK-MEL-28 melanoma
  TGI: > 100 µM
SK-MEL-5 melanoma
  TGI: > 100 µM
SN12C renal
  TGI: > 100 µM
SNB-19 CNS
  TGI: 27.6 µM
SNB-75 CNS
  TGI: > 100 µM
SR leukemia
  TGI: > 100 µM
SW-620 colon
  TGI: 28.3 µM
T-47D breast
  TGI: > 100 µM
TK-10 renal
  TGI: > 100 µM
U251 CNS
  TGI: > 100 µM
UACC-257 melanoma
  TGI: > 100 µM
UACC-62 melanoma
  TGI: > 100 µM
UO-31 renal
  TGI: > 100 µM
